For data set [1], the system named is p38. In words: H2O2-induced p38 phosphorylation in astrocytes (ELISA). The settings on record: astrocytes preincubated 2 h, H2O2 175 μM 40 min. Format: cell-based, rat. On the procedure:
Astrocytes were treated with 175 μM of H2O2 for 40 min following preincubation with achillolide A for 2 h. The levels of phosphorylated and total MEK1 (FIG. 40A), phosphorylated and total ERK1/2 (FIG. 40B), phosphorylated SAPK/JNK (FIG. 40C) and phosphorylated p38 (FIG. 40D) were measured by ELISA. The results are means±SEM of two experiments (n=4) for MEK1 and ERK 1/2, one experiment for SAPK/JNK and p38 (n=2). ***p<0.001.
Background: In an ELISA, binding on a coated surface is turned into a signal by an enzyme label.

Data set [2] deals with MMP-9. Nature of the data set: MMP-9 transcripts in LPS-activated microglial cells (real-time PCR). The data set is classed as cell-based, rat. To be noted: LPS 4.5 ng/mL; quantitative real-time PCR. On the procedure: RNA was extracted by the RNeasy Plus Mini Kit (Qiagen, Hilden, Germany) according to the manufacturer's instructions. Genomic DNA was removed from the RNA samples by using 50 units of RNase-free DNaseI at 37° C. for 1 h. RNA ([…]) was converted to cDNA using the Thermo Scientific Verso cDNA kit (Thermo Fisher Scientific Inc) following the manufacturer's protocol. The cDNA was used for quantitative real-time PCR amplification with TaqMan chemistry (Applied Biosystems) using Rat MMP9, TNFα, IL1β, iNOS, COX2 pre-designed TaqMan Gene Expression Assay from Applied Biosystems (Rn00579162_m1, Rn00562055_m1, Rn00580432_m1, Rn00561646_m1, Rn01483828_m1, respectively). […] All results from three technical replicates were normalized relative to α-Tubulin (Rn01532518.g1) and GAPDH (Rn01775763.g1), respectively, and expressed as relative expression ratios calculated (relative quantity, RQ) using the comparative method and based on the data that were created by the ABI PRISM 7700 Sequence Detection System (using version 1.6 software).
Procedure 23. Measurement of IL-1Beta, TNFalpha, iNOS, COX-2 and MMP-9 Transcripts in LPS-Activated Microglial Cells by Quantitative Real-Time PCR Analysis. • 1. […]
Microglial cells were treated with the indicated concentrations of achillolide A, followed by stimulation with LPS (4.5 ng/mL). […] The levels of MMP-9 transcripts were measured by quantitative real-time PCR. […]
(In general: Real-time PCR tracks product formation cycle by cycle.)

Data set [3] relates to astrocytes. Nature of the data set: Cytotoxicity of the compound by itself to astrocytes (LDH). The data set is classed as cell-based. To be noted: all concentrations tested, 20 h. The method, then:
Astrocytes were re-plated at 24-well poly-D-lysine-coated plastic plates at a density of 1×10^5/well, in DMEM w/o Phenol Red containing 2% FBS, 2 mM glutamine, 100 U/mL penicillin, and 100 μg/mL streptomycin. H2O2 in the presence or absence of TTF were added, and cell viability was determined using a commercial colorimetric assay (Roche Applied Science, Germany) according to the manufacturer's instructions. This assay is based on the measurement of lactate dehydrogenase (LDH) activity released from the cytosol of damaged cells into the incubation medium. The absorbance was measured at 492 nm in a plate reader. The percentage of cytotoxicity was calculated according to the following equation, where the “ATriton-x treated cells” is the maximum releasable LDH in the cells:
Astrocytes were treated with different concentrations of TTF and cell death was determined 20 h later by the LDH method. The results are means±SEM of two experiments (n=10) and are shown in FIG. 2C. ***P<0.001, compared to untreated cells.

Data set [4] relates to microglial cells. In words: Viability of LPS-activated microglial cells (MTT). Format: cell-based, rat. To be noted: MTT 20 hr later. On the procedure: Microglial cells were activated with LPS in the presence or absence of different concentrations of 3,5,4′-trihydroxy-6,7,3′-trimethoxyflavone. Cell viability was determined (using MTT) 20 hr later.

Where only a bound is given, the exact number is not on record here.

2 compounds from patent US11752125B2, “Anti-neuroinflammatory and protective compounds in Achillea fragrantissima” (THE STATE OF ISRAEL MINISTRY OF AGRICULTURE & RURAL …, priority 2013, dated 2023) can be followed below.

Regarding `C=C1CCC2=C(CO)C(=O)O[C@H]2/C=C(\C)[C@H](OC(C)=O)CC1=O` [achillolide A], the “effect on H2O2-induced phosphorylation of p38” value in data set [1] is on record as “inhibitory effect”. For the same compound, in data set [2], the “effect on MMP-9 transcripts” value is “down-regulates”.

Regarding `COc1cc(-c2oc3cc(OC)c(OC)c(O)c3c(=O)c2O)ccc1O` [TTF, 3,5,4′-trihydroxy-6,7,3′-trimethoxyflavone], in data set [3], the “cytotoxicity of the flavonoid by itself to astrocytes” value was less than 11%. Further, the “cytotoxicity to microglial cells” value in data set [4] is “not cytotoxic”.
